Data published in patent publication US20250345446A1 (Draupnir Bio ApS, priority 2022, published 2025).

Target: T1, soluble ectodomain of sortilin-6his (Homo sapiens, UniProt Q99523, V650M)
T1 construct: the soluble ectodomain of sortilin-6his is measured by microscale thermophoresis (MST)
Assay: MST binding to soluble ectodomain of sortilin-6his
Details: Table 4, small molecule bifunctional compounds, MST; for Kd: read-out: KD score, binding to sortilin (Kd)
Procedure: At this point the plate was sealed with adhesive strip and placed on an Eppendorf thermomixer to shake at 600 rpm for 3 min before spinning on a Fisherbrand plate-spinner for 15 seconds and further incubation 1 hrs at 19° C. MST was measured on a Monolith NT. Automated (Nanotemper) in standard-treated capillaries at 5% LED-power and high MST-power. Dose-response was extracted from the raw thermographs at 20 sec hot-time and the dissociation constant was estimated by sigmoidal curve fitting in MO. Affinity analysis program (Nanotemper). All experiments were run in duplicates.

T1 sequence (Q99523 with tags, fused parts or gaps V650M): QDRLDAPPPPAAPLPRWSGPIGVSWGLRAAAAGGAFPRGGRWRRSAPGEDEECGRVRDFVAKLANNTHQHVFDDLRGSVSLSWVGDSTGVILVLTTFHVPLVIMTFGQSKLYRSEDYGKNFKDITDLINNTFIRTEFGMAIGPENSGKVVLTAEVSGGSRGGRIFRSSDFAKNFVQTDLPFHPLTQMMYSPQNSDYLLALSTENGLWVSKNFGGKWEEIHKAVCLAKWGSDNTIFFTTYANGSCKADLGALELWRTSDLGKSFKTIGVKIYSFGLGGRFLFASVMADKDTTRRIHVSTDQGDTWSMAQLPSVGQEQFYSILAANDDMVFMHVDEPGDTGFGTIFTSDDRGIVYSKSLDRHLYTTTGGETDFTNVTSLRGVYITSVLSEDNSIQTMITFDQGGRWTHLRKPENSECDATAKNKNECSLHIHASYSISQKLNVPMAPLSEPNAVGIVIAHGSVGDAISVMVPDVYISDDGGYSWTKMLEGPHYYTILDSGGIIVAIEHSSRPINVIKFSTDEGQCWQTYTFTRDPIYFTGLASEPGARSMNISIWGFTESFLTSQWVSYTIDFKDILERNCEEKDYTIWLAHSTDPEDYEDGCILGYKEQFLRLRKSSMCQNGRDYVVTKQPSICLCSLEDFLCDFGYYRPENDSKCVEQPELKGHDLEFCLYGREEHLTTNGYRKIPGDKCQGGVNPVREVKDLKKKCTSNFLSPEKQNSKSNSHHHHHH

Kd	KD score, binding to sortilin (Kd)	Compound
< 1 nM		CC(C)(C)CC[C@H](NC(=O)c1ccc(Oc2cccc(C(=O)NCCOCCOCCOCCOCCOCCOc3ncc(-c4ccc5c(n4)N(Cc4cccnc4C#N)C(C)(C)C5=O)cn3)c2)nc1)C(=O)O [BF059]
1 to 10 nM		CC(C)(C)CC[C@H](NC(=O)c1ccc(Oc2cccc(C(=O)NCCOCCNc3ncc(-c4ccc5c(n4)N(Cc4cccnc4C#N)C(C)(C)C5=O)cn3)c2)nc1)C(=O)O [BF060, (2S)-2-[[6-[3-[2-[2-[[5-[1-[(2-cyano-3-pyridyl)methyl]-2,2-dimethyl-3-oxo-pyrrolo[2,3-b]pyridin-6-yl]pyrimidin-2-yl]amino]ethoxy]ethylcarbamoyl]phenoxy]pyridine-3-carbonyl]amino]-5,5-dimethyl-hexanoic acid]
1 to 10 nM		CC(C)(C)CC[C@H](NC(=O)c1ccc(Oc2cccc(C(=O)NCCOCCOCCOCCOCCNc3ncc(-c4ccc5c(n4)N(Cc4cccnc4C#N)C(C)(C)C5=O)cn3)c2)nc1)C(=O)O [BF062, (2S)-2-[[6-[3-[2-[2-[2-[2-[2-[[5-[1-[(2-cyano-3-pyridyl)methyl]-2,2-dimethyl-3-oxo-pyrrolo[2,3-b]pyridin-6-yl]pyrimidin-2-yl]amino]ethoxy]ethoxy]ethoxy]ethoxy]ethylcarbamoyl]phenoxy]pyridine-3-carbonyl]amino]-5,5-dimethyl-hexanoic acid]
1 to 10 nM		C[C@@H]1CN(c2ncc(-c3ccc4c(n3)N(Cc3cccnc3C#N)C(C)(C)C4=O)cn2)CCN1C(=O)COCCNC(=O)COc1cccc(Oc2ccc(C(=O)N[C@@H](CCC(C)(C)C)C(=O)O)cn2)c1 [BF064, (S)-2-(6-(3-(2-((8-(2-((R)-4-(5-(1-((2-cyanopyridin-3-yl)methyl)-2,2-dimethyl-3-oxo-2,3-dihydro-1H-pyrrolo[2,3-b]pyridin-6-yl)pyrimidin-2-yl)-2-methylpiperazin-1-yl)-2-oxoethoxy)methyl)amino)-2-oxoethoxy)phenoxy)nicotinamido)-5,5-dimethylhexanoic acid]
< 1 nM		CC(C)(C)CC[C@H](NC(=O)c1ccc(Oc2cccc(C(=O)NCCOCCOCCOCCOCCOCCNc3ncc(-c4ccc5c(n4)N(Cc4cccnc4C#N)C(C)(C)C5=O)cn3)c2)nc1)C(=O)O [BF067, (2S)-2-[[6-[3-[2-[2-[2-[2-[2-[2-[[5-[1-[(2-cyano-3-pyridyl)methyl]-2,2-dimethyl-3-oxo-pyrrolo[2,3-b]pyridin-6-yl]pyrimidin-2-yl]amino]ethoxy]ethoxy]ethoxy]ethoxy]ethoxy]ethylcarbamoyl]phenoxy]pyridine-3-carbonyl]amino]-5,5-dimethyl-hexanoic acid]
1 to 10 nM		CC(C)(C)CC[C@H](NC(=O)c1ccc(Oc2cccc(C(=O)NCCOCCOCCOc3ncc(-c4ccc5c(n4)N(Cc4cccnc4C#N)C(C)(C)C5=O)cn3)c2)nc1)C(=O)O [BF070, (2S)-2-[[6-[3-[2-[2-[2-[5-[1-[(2-cyano-3-pyridyl)methyl]-2,2-dimethyl-3-oxo-pyrrolo[2,3-b]pyridin-6-yl]pyrimidin-2-yl]oxyethoxy]ethoxy]ethylcarbamoyl]phenoxy]pyridine-3-carbonyl]amino]-5,5-dimethyl-hexanoic acid]
< 1 nM		CC(C)(C)CC[C@H](NC(=O)COc1cccc(Oc2ccc(C(=O)NCCOCCNc3ncc(-c4ccc5c(n4)N(Cc4cccnc4C#N)C(C)(C)C5=O)cn3)cn2)c1)C(=O)O [BF072, (2S)-2-[[2-[3-[[5-[2-[2-[[5-[1-[(2-cyano-3-pyridyl)methyl]-2,2-dimethyl-3-oxo-pyrrolo[2,3-b]pyridin-6-yl]pyrimidin-2-yl]amino]ethoxy]ethylcarbamoyl]-2-pyridyl]oxy]phenoxy]acetyl]amino]-5,5-dimethyl-hexanoic acid]
	0	CC(C)(C)CC[C@H](NC(=O)COc1cccc(Oc2ccc(C(=O)NCCOCCOCCOCCOCc3cn(CCCCCOc4ncc(-c5ccc6c(n5)N(Cc5cccnc5C#N)C(C)(C)C6=O)cn4)nn3)cn2)c1)C(=O)O [BF075, (2S)-2-[[2-[3-[[5-[2-[2-[2-[2-[[1-[5-[5-[1-[(2-cyano-3-pyridyl)methyl]-2,2-dimethyl-3-oxo-pyrrolo[2,3-b]pyridin-6-yl]pyrimidin-2-yl]oxypentyl]triazol-4-yl]methoxy]ethoxy]ethoxy]ethoxy]ethylcarbamoyl]-2-pyridyl]oxy]phenoxy]acetyl]amino]-5,5-dimethyl-hexanoic acid]
1 to 10 nM		Cc1nc2cc(F)c(-c3cnc(OCCCCCn4cc(COCCOCCOCCOCCNC(=O)COc5cccc(Oc6ccc(C(=O)N[C@@H](CCC(C)(C)C)C(=O)O)cn6)c5)nn4)nc3)nc2c(N[C@H](C)c2cc(C#N)ccc2F)c1Cl [BF084, (2S)-2-[[6-[3-[2-[2-[2-[2-[2-[[1-[5-[5-[7-chloro-8-[[(1R)-1-(5-cyano-2-fluoro-phenyl)ethyl]amino]-3-fluoro-6-methyl-1,5-naphthyridin-2-yl]pyrimidin-2-yl]oxypentyl]triazol-4-yl]methoxy]ethoxy]ethoxy]ethoxy]ethylamino]-2-oxo-ethoxy]phenoxy]pyridine-3-carbonyl]amino]-5,5-dimethyl-hexanoic acid]
1 to 10 nM		Cc1nc2cc(F)c(-c3cnc(OCCOCCOCCOCCOCCOCCOCCNC(=O)COc4cccc(Oc5ccc(C(=O)N[C@@H](CCC(C)(C)C)C(=O)O)cn5)c4)nc3)nc2c(N[C@H](C)c2cc(C#N)ccc2F)c1Cl [BF085, (2S)-2-[[6-[3-[2-[2-[2-[2-[2-[2-[2-[2-[5-[7-chloro-8-[[(1R)-1-(5-cyano-2-fluoro-phenyl)ethyl]amino]-3-fluoro-6-methyl-1,5-naphthyridin-2-yl]pyrimidin-2-yl]oxyethoxy]ethoxy]ethoxy]ethoxy]ethoxy]ethoxy]ethylamino]-2-oxo-ethoxy]phenoxy]pyridine-3-carbonyl]amino]-5,5-dimethyl-hexanoic acid]
1 to 10 nM		Cc1nc2cc(F)c(-c3cnc(OCCOCCn4cc(COCC(=O)N5CC(OCCNC(=O)COc6cccc(Oc7ccc(C(=O)N[C@@H](CCC(C)(C)C)C(=O)O)cn7)c6)C5)nn4)nc3)nc2c(N[C@H](C)c2cc(C#N)ccc2F)c1Cl [BF088, (2S)-2-[[6-[3-[2-[2-[1-[2-[[1-[2-[2-[5-[7-chloro-8-[[(1R)-1-(5-cyano-2-fluoro-phenyl)ethyl]amino]-3-fluoro-6-methyl-1,5-naphthyridin-2-yl]pyrimidin-2-yl]oxyethoxy]ethyl]triazol-4-yl]methoxy]acetyl]azetidin-3-yl]oxyethylamino]-2-oxo-ethoxy]phenoxy]pyridine-3-carbonyl]amino]-5,5-dimethyl-hexanoic acid]
< 1 nM		Cc1nc2cc(F)c(-c3cnc(OCCN4CC(n5cc(COCC(=O)N6CC(OCCNC(=O)COc7cccc(Oc8ccc(C(=O)N[C@@H](CCC(C)(C)C)C(=O)O)cn8)c7)C6)nn5)C4)nc3)nc2c(N[C@H](C)c2cc(C#N)ccc2F)c1Cl [BF089, (2S)-2-[[6-[3-[2-[2-[1-[2-[[1-[1-[2-[5-[7-chloro-8-[[(1R)-1-(5-cyano-2-fluoro-phenyl)ethyl]amino]-3-fluoro-6-methyl-1,5-naphthyridin-2-yl]pyrimidin-2-yl]oxyethyl]azetidin-3-yl]triazol-4-yl]methoxy]acetyl]azetidin-3-yl]oxyethylamino]-2-oxo-ethoxy]phenoxy]pyridine-3-carbonyl]amino]-5,5-dimethyl-hexanoic acid]
< 1 nM		Cc1nc2cc(F)c(-c3cnc(OCCN4CCC(n5cc(COCC(=O)N6CCC(OCCNC(=O)COc7cccc(Oc8ccc(C(=O)N[C@@H](CCC(C)(C)C)C(=O)O)cn8)c7)CC6)nn5)CC4)nc3)nc2c(N[C@H](C)c2cc(C#N)ccc2F)c1Cl [BF090, (2S)-2-[[6-[3-[2-[2-[[1-[2-[[1-[1-[2-[5-[7-chloro-8-[[(1R)-1-(5-cyano-2-fluoro-phenyl)ethyl]amino]-3-fluoro-6-methyl-1,5-naphthyridin-2-yl]pyrimidin-2-yl]oxyethyl]-4-piperidyl]triazol-4-yl]methoxy]acetyl]-4-piperidyl]oxy]ethylamino]-2-oxo-ethoxy]phenoxy]pyridine-3-carbonyl]amino]-5,5-dimethyl-hexanoic acid]
< 1 nM		C[C@@H]1CN(c2ncc(-c3ccc4c(n3)N(Cc3cccnc3C#N)C(C)(C)C4=O)cn2)CCN1C(=O)Cn1cc(COCCOCCOCCOCCOCCOc2cccc(Oc3ccc(C(=O)N[C@@H](CCC(C)(C)C)C(=O)O)cn3)c2)nn1 [BF098, (2S)-2-[[6-[3-[2-[2-[2-[2-[2-[[1-[2-[(2R)-4-[5-[1-[(2-cyano-3-pyridyl)methyl]-2,2-dimethyl-3-oxo-pyrrolo[2,3-b]pyridin-6-yl]pyrimidin-2-yl]-2-methyl-piperazin-1-yl]-2-oxo-ethyl]triazol-4-yl]methoxy]ethoxy]ethoxy]ethoxy]ethoxy]ethoxy]phenoxy]pyridine-3-carbonyl]amino]-5,5-dimethyl-hexanoic acid]
< 1 nM		C[C@@H]1CN(c2ncc(-c3ccc4c(n3)N(Cc3cccnc3C#N)C(C)(C)C4=O)cn2)CCN1C(=O)CNC(=O)CCCCCOCCOCCNC(=O)c1cccc(Oc2ccc(C(=O)N[C@@H](CCC(C)(C)C)C(=O)O)cn2)c1 [BF100, (2S)-2-[[6-[3-[2-[2-[6-[[2-[(2R)-4-[5-[1-[(2-cyano-3-pyridyl)methyl]-2,2-dimethyl-3-oxo-pyrrolo[2,3-b]pyridin-6-yl]pyrimidin-2-yl]-2-methyl-piperazin-1-yl]-2-oxo-ethyl]amino]-6-oxo-hexoxy]ethoxy]ethylcarbamoyl]phenoxy]pyridine-3-carbonyl]amino]-5,5-dimethyl-hexanoic acid]
1 to 10 nM		C[C@@H]1CN(c2ncc(-c3ccc4c(n3)N(Cc3cccnc3C#N)C(C)(C)C4=O)cn2)CCN1C(=O)Cn1cc(COCCOCCOCCOCCOc2cccc(Oc3ccc(C(=O)N[C@@H](CCC(C)(C)C)C(=O)O)cn3)c2)nn1 [BF101, (2S)-2-[[6-[3-[2-[2-[2-[2-[[1-[2-[(2R)-4-[5-[1-[(2-cyano-3-pyridyl)methyl]-2,2-dimethyl-3-oxo-pyrrolo[2,3-b]pyridin-6-yl]pyrimidin-2-yl]-2-methyl-piperazin-1-yl]-2-oxo-ethyl]triazol-4-yl]methoxy]ethoxy]ethoxy]ethoxy]ethoxy]phenoxy]pyridine-3-carbonyl]amino]-5,5-dimethyl-hexanoic acid]
